# Measured values reported in publication PMC12374030, “Hydroxyalkyne–Bithiophene Derivatives: Synthesis and Antileishmanial Activity” (Chemical Biology & Drug Design, 2025).
# Columns and labels:
# [1] = test system: Leishmania amazonensis amastigote; set-up: method as in Takahashi et al. [2011]; settings: previous work; ref Takahashi et al. [2011]; cited from earlier work
# [2] = test system: Leishmania amazonensis promastigote; set-up: method as in Takahashi et al. [2011]; settings: previous work; ref Takahashi et al. [2011]; cited from earlier work
# [3] = test system: L. amazonensis promastigotes; experiment: Lipid bodies accumulation (Nile red); assay type: cell-based, Leishmania amazonensis
# Protocol: Promastigotes at 1 × 10^6 parasites mL^−1 treated with BT‐1 for 24 h were incubated with 10 μg mL^−1 Nile red, a lipophilic stain, for 30 min at 25°C. The fluorescence was measured in a Victor X3 spectrofluorimeter (PerkinElmer, Waltham, MA, USA) at λex of 485 nm and λem of 535 nm (Stefanello et al. [2014]).
# [4] = test system: L. amazonensis promastigotes; experiment: Lipid peroxidation assay (DPPP); assay type: cell-based, Leishmania amazonensis
# Protocol: Promastigotes at 1 × 10^6 parasites mL^−1 treated with BT‐1 for 24 h were incubated with 50 μM DPPP for 15 min at 22°C. As a positive control, 50 μM H2O2 was used. The fluorescence was determined in a Victor X3 spectrofluorimeter (PerkinElmer, Waltham, MA, USA) at λex of 355 nm and λem of 460 nm. DPPP is essentially nonfluorescent until it is oxidized to a phosphine oxide (DPPP‐O) by peroxides (Okimoto et al. [2000]).
# J774A.1 macrophages = experiment: Cytotoxicity assay in macrophages (MTT); assay type: cell-based; settings: at 23.2 μM (IC50 against promastigotes)
# [5] = test system: L. amazonensis promastigote forms; experiment: Morphological and ultrastructural changes (SEM, TEM); assay type: cell-based, Leishmania amazonensis; settings: IC50 or 2 × IC50, 72 h
# Protocol: After this, the parasites were fixed in a solution of 2.5% glutaraldehyde in 0.1 M cacodylate buffer for 24 h at 4°C. For scanning electron microscopy (SEM), the parasites were dehydrated in increasing concentrations of ethanol, critical point‐dried in CO2, sputter‐coated with gold, and observed in a Quanta 250 scanning electron microscope (FEI Company, Hillsboro, OR, USA). For transmission electron microscopy (TEM), the parasites were fixed as described for SEM. After this, the parasites were postfixed in a solution of 1% OsO4, 0.8% K4[Fe(CN)6], and 10 mM CaCl2 in 0.1 M cacodylate buffer. The samples were dehydrated in increasing concentrations of acetone and embedded in Poly/Bed 812 resin. Ultrathin sections were then obtained, contrasted with uranyl acetate and lead citrate, and observed in a JEM 1400 transmission electron microscope (JEOL Ltd., Tokyo, Japan).
# [6] = test system: L. amazonensis promastigotes; experiment: Cell cycle (PI-RNAse A, flow cytometry); assay type: cell-based, Leishmania amazonensis; settings: IC50, 24 h
# Protocol: Promastigotes at 1 × 10^6 parasites mL^−1 treated with BT‐1 for 24 h were fixed in 70% cold methanol in PBS at 4°C for 2 h. Afterward, the parasites were washed in PBS, 10 μg mL^−1 PI‐RNAse A was added, and the samples were incubated at 37°C for 45 min. The data acquisition and analysis were performed using a FACSCalibur flow cytometer (BD Biosciences, Franklin Lakes, NJ, USA) equipped with CellQuest software. A total of 10,000 events were acquired in the region that corresponded to the parasites. As a positive control, 40 μM miltefosine was used. The percentages of cells in each stage of the cell cycle were determined based on the intensity of the PI fluorescence, which is directly proportional to the DNA content.
# [7] = test system: L. amazonensis promastigotes; experiment: Cell membrane integrity (PI, flow cytometry); assay type: cell-based, Leishmania amazonensis
# Protocol: Promastigotes at 1 × 10^6 parasites mL^−1 treated with BT‐1 for 24 h were incubated with 0.2 μg mL^−1 PI for 10 min. As a positive control, 40 μM digitonin was used. The data acquisition and analysis were performed using a FACSCalibur flow cytometer (BD Biosciences, Franklin Lakes, NJ, USA) equipped with CellQuest software. A total of 10,000 events were acquired in the region that corresponded to the parasites. Alterations in PI fluorescence were quantified as the percentage increase in fluorescence compared with the untreated parasites (Lazarin‐Bidóia et al. [2013]).
# [8] = test system: L. amazonensis promastigotes; experiment: Cell size (FSC-H, flow cytometry); assay type: cell-based, Leishmania amazonensis; settings: 2 × IC50, 24 h
# Protocol: Promastigotes at 1 × 10^6 parasites mL^−1 treated with BT‐1 for 24 h were washed twice and resuspended in phosphate‐buffered saline (PBS), then analyzed using a FACSCalibur flow cytometer (BD Biosciences, Franklin Lakes, NJ, USA) equipped with CellQuest software. As a positive control, […] actinomycin D was used. A total of 10,000 events were acquired in the region that corresponded to the parasites. Histograms were generated for each sample, where the forward light scatter (FSC‐H) represents the cell volume (Lazarin‐Bidóia et al. [2013]).
# [9] = test system: L. amazonensis promastigote forms; experiment: Antiproliferative assay (XTT); assay type: cell-based, Leishmania amazonensis
# Protocol: L. amazonensis MHOM/BR/75/Josefa strain was originally isolated from a human case of CL by Dr. […]. Cuba at the University of Brasilia, Brazil (Saraiva et al. [1983]; Cuba et al. [1985]). […] The activity against promastigotes was evaluated by XTT (0.5 mg mL^-1), as previously described (Meshulam et al. [1995]). Absorbance was read in a microplate spectrophotometer (PowerWave XS; BioTek, Winooski, VT, USA) at 450 nm.
# [10] = Cytotoxicity assay in macrophages (MTT); assay type: cell-based; settings: mouse, J774A.1 macrophages, pH 7.2
# Protocol: L. amazonensis MHOM/BR/75/Josefa strain was originally isolated from a human case of CL by Dr. Cesar A. Cuba at the University of Brasilia, Brazil (Saraiva et al. [1983]; Cuba et al. [1985]). Promastigote forms of this strain were maintained axenically in Warren's medium (brain–heart infusion plus hemin and folic acid; pH 7.2) supplemented with 10% heat‐inactivated FBS and maintained at 25°C. J774A.1 macrophages (obtained from the Cell Bank of Rio de Janeiro, RJ, Brazil) were maintained in RPMI‐1640 medium (pH 7.2), supplemented with sodium bicarbonate, L‐glutamine, 10% FBS, and streptomycin and penicillin at 37°C in a 5% CO2 atmosphere.
# Cytotoxicity was evaluated in the J774A.1 macrophages. Macrophages (5 × 10^5 cells mL^−1) were cultured in 96‐well microplates containing RPMI‐1640 medium supplemented with 10% FBS. The plates were incubated at 37°C in a 5% CO2 atmosphere for confluent growth of the cells. After 24 h, the compounds were added to each well at increasing concentrations (31.25–1000 μM) and incubated for 48 h at 37°C in a 5% CO2 atmosphere. The cytotoxicity was evaluated by MTT (2 mg mL^−1), as previously described (Mosmann [1983]). Absorbance was read in a microplate spectrophotometer (PowerWave XS; BioTek, […], VT, USA) at 570 nm.
# [11] = test system: L. amazonensis promastigotes; experiment: Mitochondrial membrane potential (Rh123, flow cytometry); assay type: cell-based, Leishmania amazonensis; settings: for Mitochondrial potential: Average (Median): 24 h, Rh123 fluorescence
# Protocol: Promastigotes at 1 × 10^6 parasites mL^−1 treated with BT‐1 for 24 h were incubated with 5 μg mL^−1 Rh123, a fluorescent probe that accumulates in mitochondria, for 15 min (Menna‐Barreto, Corrêa, et al. [2009]; Menna‐Barreto, Goncalves, et al. [2009]). As a positive control, 100 μM CCCP was used. The data acquisition and analysis were performed using a FACSCalibur flow cytometer (BD Biosciences, Franklin Lakes, NJ, USA) equipped with CellQuest software. A total of 10,000 events were acquired in the region corresponding to the parasites.
# [12] = test system: L. amazonensis promastigotes; experiment: Reactive oxygen species production (H2DCFDA); assay type: cell-based, Leishmania amazonensis
# Protocol: Promastigotes at 1 × 10^6 parasites mL^−1 treated with BT‐1 for 24 h were incubated with 10 μM H2DCFDA in the dark for 45 min. As a positive control, 50 μM H2O2 was used. The fluorescence was determined by oxidation of H2DCFDA to the fluorescent product, 2′‐7ʹ dichlorofluorescein (DCF), which was measured in a Victor X3 spectrofluorimeter (PerkinElmer, Waltham, MA, USA) at λex of 488 nm and λem of 530 nm (Shukla et al. [2012]).
smiles,measurement,setting,value
"CC(=O)OCCC#Cc1ccc(-c2ccc(C)s2)s1 [I, 5′‐methyl‐(5‐[4‐acetoxy‐1‐butynyl])‐2,2′‐bithiophene]",IC50 amastigote,[1],28.7 ± 2.6 µg/mL
same,IC50 promastigote,[2],21.3 ± 4.4 µg/mL
CCC(O)C#Cc1ccc(-c2ccc(C=O)s2)s1 (stereo not shown) [Compound 1],increase in lipid body accumulation vs untreated control,"[3]; 2 × IC50, 24 h",1.5 fold
same,increase in lipid body accumulation vs untreated control,"[3]; IC50, 24 h",1.4 fold
same,increase in lipoperoxidation vs untreated control,"[4]; 2 × IC50, 24 h",8.0 fold
same,increase in lipoperoxidation vs untreated control,"[4]; IC50, 24 h",3.0 fold
same,toxicity to J774A.1 macrophages,J774A.1 macrophages,no toxicity
same,morphological alterations by SEM,[5],"rounded shape and a reduction in cell body size, cell surface roughness, a shorter flagellum, and extravasation of cytoplasmic content"
same,ultrastructural alterations by TEM,[5],"presence of lipid bodies, loss of cell content, disorganization of the nucleus, a large amount of exocytic activity, and mitochondrial swelling"
same,increase of cells in G0/G1 phase,[6],1.3 fold
same,increase of cells in sub-G0/G1 phase,[6],2.22 fold
same,increase of PI-stained cells vs untreated control,"[7]; 2 × IC50, 24 h",11.13 fold
same,increase of PI-stained cells vs untreated control,"[7]; IC50, 24 h",3.48 fold
same,decrease in cell size compared with the untreated control,[8],1.45 fold
same,IC50,"[9]; Leishmania amazonensis, 72 h, 25°C, XTT, read-out: L. amazonensis (promastigotes) IC50",23.2 ± 1.1 µM
same,Selectivity index (SI),[9]; ratio between the CC50 (J774A.1 macrophages) and IC50 (promastigotes),9.33
same,CC50 at 48 h,[10],216 ± 5.1 µM
same,Mitochondrial potential: Average (Median),[11]; 23.2 μM (IC50),1841.42
same,Mitochondrial potential: Average (Median),[11]; 46.4 μM (2 × IC50),796.77
same,reduction of mitochondrial potential compared with the untreated control,"[11]; 2 × IC50, 24 h",2.75 fold
same,increase in the production of total ROS vs untreated control,"[12]; 2 × IC50, 24 h",9.0 fold
same,increase in the production of total ROS vs untreated control,"[12]; IC50, 24 h",3.0 fold
